Data taken from patent US20240376121A1, “COMPOUNDS AND USES THEREOF” (Foghorn Therapeutics Inc., priority 2021, published 2024).

Columns and labels:
HiBit-BRM fusion protein = biological target: T1, HiBit-BRM fusion protein (Homo sapiens, UniProt P51531); experiment: HiBiT-BRM cell-based degradation assay (Nano-Glo HiBiT Lytic Detection); conditions: stable HeLa cell line expressing HiBiT-BRM, 24 h incubation; for BRM HiBit Degradation Maximum (%): top dose 30 μM; for DC50: read-out: BRM HiBit Degradation IC50
T1 construct: expressed in transfected cells
Procedure: (§1) Procedure: A stable HeLa cell line expressing HiBiT-BRM was generated. On day 0, 5000 cells were seeded in 40 μL of media into each well of 384-well cell culture plates. On day 1, cells were treated with 120 nL DMSO or 120 nL of 3-fold serially DMSO-diluted compounds (10 points in duplicate with 30 μM as final top dose). Subsequently plates were incubated for 24 h in a standard tissue culture incubator and equilibrated at room temperature for 15 minutes. Nano-Glo HiBiT Lytic Detection System (Promega N3050) reagent was freshly prepared and 20 ul was added to each well. Upon addition of this LgBit-containing reagent, the HiBiT and LgBiT proteins associate to form the luminescent NanoBiT luciferase. The plates were shaken for 10 minutes at room temperature and the bioluminescence read using an EnVision plate reader (PerkinElmer).
(§2) The degradation % was calculated using the following formula: % degradation=100%−100%×(LumSample−LumLC)/(LumHC−LumLC). DMSO treated cells are employed as High Control (HC) and 2 μM of a known BRM/BRG1 degrader standard treated cells are employed as Low Control (LC).

[1] = biological target: T2, HiBit-BRG1 fusion protein (Homo sapiens, UniProt P51532); experiment: HiBiT-BRG1 cell-based degradation assay (Nano-Glo HiBiT Lytic Detection); conditions: stable HeLa cell line expressing HiBit-BRG1 and LgBit, 24 h incubation; for Dmax: top dose 30 μM, read-out: BRG1 HiBit Degradation Maximum (%); for DC50: read-out: BRMG1 HiBit Degradation IC50
T2 construct: expressed in transfected cells
Procedure: as §1
For measurement of BRG1 degradation, a stable HeLa cell line expressing HiBit-BRG1 and LgBit was generated. The same protocol as above was then followed.
as §2

T1 sequence (P51531 whole entry, the tested form may be a part): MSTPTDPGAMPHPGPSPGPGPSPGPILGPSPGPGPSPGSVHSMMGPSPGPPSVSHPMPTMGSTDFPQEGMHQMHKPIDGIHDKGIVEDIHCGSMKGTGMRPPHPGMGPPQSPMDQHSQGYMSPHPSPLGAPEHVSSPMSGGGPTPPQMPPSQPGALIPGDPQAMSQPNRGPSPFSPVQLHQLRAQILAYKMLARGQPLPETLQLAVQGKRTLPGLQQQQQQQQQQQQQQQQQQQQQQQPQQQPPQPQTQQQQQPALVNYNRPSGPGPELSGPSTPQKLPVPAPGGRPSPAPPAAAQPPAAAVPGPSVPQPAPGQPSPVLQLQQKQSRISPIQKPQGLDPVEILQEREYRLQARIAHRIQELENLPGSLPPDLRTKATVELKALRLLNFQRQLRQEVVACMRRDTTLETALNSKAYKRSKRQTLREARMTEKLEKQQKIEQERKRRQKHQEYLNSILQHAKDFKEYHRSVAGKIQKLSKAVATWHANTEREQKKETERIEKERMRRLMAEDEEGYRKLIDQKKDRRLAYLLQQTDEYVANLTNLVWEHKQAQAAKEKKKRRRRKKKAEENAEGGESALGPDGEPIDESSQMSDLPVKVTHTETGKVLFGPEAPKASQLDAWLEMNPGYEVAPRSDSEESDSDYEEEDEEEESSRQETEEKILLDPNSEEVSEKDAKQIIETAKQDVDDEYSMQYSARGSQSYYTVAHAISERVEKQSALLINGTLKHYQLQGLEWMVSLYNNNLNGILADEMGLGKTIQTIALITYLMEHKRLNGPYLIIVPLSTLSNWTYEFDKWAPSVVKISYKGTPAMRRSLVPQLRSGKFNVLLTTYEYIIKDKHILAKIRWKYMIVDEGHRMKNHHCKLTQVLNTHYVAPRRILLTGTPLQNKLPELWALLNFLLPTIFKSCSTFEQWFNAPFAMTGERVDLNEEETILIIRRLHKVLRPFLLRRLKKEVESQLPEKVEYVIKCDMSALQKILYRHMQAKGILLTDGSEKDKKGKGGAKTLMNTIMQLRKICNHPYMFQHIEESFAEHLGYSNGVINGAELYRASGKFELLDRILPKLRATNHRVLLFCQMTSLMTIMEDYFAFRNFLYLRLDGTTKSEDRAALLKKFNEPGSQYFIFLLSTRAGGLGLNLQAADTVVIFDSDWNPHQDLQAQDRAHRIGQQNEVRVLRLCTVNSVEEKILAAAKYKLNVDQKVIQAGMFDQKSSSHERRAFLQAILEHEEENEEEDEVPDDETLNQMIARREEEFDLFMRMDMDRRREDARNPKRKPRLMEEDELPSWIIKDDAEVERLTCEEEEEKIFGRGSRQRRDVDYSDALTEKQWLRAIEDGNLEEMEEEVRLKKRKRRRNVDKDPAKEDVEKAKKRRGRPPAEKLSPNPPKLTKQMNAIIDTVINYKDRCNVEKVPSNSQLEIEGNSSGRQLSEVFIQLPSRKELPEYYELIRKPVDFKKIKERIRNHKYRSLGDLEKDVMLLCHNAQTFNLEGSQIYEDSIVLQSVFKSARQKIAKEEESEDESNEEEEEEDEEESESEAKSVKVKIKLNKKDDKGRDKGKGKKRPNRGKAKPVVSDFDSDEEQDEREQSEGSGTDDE
T2 sequence (P51532 whole entry, the tested form may be a part): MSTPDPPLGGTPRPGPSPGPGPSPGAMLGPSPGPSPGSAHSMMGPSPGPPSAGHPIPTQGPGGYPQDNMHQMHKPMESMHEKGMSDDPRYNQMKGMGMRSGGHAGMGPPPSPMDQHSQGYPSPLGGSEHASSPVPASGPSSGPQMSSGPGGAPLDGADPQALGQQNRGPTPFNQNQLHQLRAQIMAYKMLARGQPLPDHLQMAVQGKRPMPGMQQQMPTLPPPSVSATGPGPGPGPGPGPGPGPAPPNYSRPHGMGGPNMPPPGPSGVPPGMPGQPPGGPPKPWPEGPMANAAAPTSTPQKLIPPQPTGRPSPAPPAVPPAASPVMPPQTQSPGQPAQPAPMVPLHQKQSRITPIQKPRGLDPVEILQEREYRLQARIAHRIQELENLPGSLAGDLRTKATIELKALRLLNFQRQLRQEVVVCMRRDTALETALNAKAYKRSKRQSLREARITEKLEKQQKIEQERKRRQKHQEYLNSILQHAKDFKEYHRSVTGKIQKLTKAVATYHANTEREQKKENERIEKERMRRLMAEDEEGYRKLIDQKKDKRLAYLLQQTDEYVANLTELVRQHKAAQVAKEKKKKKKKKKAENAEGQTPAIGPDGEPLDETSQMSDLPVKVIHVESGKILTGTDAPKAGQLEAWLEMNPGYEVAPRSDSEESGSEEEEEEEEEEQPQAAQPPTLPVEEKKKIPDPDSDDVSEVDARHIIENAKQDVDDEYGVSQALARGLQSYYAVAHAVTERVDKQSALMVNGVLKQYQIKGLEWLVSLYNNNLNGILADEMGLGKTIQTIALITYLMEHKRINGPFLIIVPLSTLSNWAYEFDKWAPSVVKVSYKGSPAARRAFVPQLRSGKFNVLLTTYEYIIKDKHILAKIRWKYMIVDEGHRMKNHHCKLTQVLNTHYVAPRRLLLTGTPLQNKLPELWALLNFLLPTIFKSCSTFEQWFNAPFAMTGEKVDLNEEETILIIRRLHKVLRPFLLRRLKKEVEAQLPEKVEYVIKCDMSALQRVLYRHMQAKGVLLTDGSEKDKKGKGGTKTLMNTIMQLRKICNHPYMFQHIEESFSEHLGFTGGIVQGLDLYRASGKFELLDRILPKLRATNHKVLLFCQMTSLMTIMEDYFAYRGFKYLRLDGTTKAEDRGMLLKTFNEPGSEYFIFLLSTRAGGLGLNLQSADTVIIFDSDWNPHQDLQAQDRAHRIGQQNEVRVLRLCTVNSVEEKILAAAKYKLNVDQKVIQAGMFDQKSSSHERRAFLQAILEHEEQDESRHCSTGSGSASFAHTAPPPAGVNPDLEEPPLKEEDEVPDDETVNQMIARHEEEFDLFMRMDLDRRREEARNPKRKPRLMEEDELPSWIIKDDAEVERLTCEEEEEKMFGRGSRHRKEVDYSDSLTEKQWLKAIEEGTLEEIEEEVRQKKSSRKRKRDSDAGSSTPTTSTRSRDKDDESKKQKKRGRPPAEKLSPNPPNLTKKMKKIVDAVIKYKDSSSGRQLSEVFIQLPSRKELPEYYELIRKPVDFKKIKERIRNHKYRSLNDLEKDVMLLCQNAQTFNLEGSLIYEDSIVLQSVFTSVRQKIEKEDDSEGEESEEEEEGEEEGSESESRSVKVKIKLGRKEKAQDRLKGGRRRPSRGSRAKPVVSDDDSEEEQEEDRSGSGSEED

| Compound | DC50 (HiBit-BRM fusion protein) | Dmax [1] | DC50 [1] | BRM HiBit Degradation Maximum (%) (HiBit-BRM fusion protein) |
| --- | --- | --- | --- | --- |
| Cc1ncsc1-c1ccc([C@@H](C)NC(=O)[C@H]2C[C@H](O)CN2C(=O)[C@H](c2cc(OCCN3CC(Cc4cc5cc(-c6ccccc6O)nnc5s4)C3)no2)C(C)C)cc1 [Compound 23] | ≥ 0.1 µM | < 50% | ≥ 1 µM | B (“B” indicates maximum degradation ≥ 50%) |
| Cc1ncsc1-c1ccc([C@H](C)NC(=O)[C@@H]2C[C@@H](O)CN2C(=O)[C@@H](c2cc(OCCN3CC(c4cc5nnc(-c6ccccc6O)cc5s4)C3)no2)C(C)C)cc1 [Compound 9, (2S,4R)-4-hydroxy-1-((R)-2-(3-(2-(3-(3-(2-hydroxyphenyl)thieno[3,2-c]pyridazin-6-yl)azetidin-1-yl)ethoxy)isoxazol-5-yl)-3-methylbutanoyl)-N—((S)-1-(4-(4-methylthiazol-5-yl)phenyl)ethyl)pyrrolidine-2-carboxamide] | ≥ 0.01 µM | < 50% | ≥ 1 µM | A (“A” indicates maximum degradation ≥ 75%) |
| Cc1ncsc1-c1ccc([C@H](C)NC(=O)[C@@H]2C[C@@H](O)CN2C(=O)[C@@H](c2cc(OCCN3C[C@@H]4[C@H](C3)[C@H]4c3c(C)sc4nnc(-c5ccccc5O)cc34)no2)C(C)C)cc1 [Compound 21] | ≥ 1 µM | < 50% | ≥ 1 µM | C (“C” indicates maximum degradation < 50%) |
| Cc1ncsc1-c1ccc([C@H](C)NC(=O)[C@@H]2C[C@@H](O)CN2C(=O)[C@@H](c2cc(OCCN3CCC(O)(c4cc5nnc(-c6ccccc6O)cc5s4)CC3)no2)C(C)C)cc1 [Compound 73, (2S,4R)-4-hydroxy-1-((R)-2-(3-(2-(4-hydroxy-4-(3-(2-hydroxyphenyl)thieno[3,2-c]pyridazin-6-yl)piperidin-1-yl)ethoxy)isoxazol-5-yl)-3-methylbutanoyl)-N-((S)-1-(4-(4-methylthiazol-5-yl)phenyl)ethyl)pyrrolidine-2-carboxamide] | ≥ 0.01 µM | < 50% | ≥ 1 µM | A (“A” indicates maximum degradation ≥ 75%) |
| Cc1ncsc1-c1ccc([C@H](C)NC(=O)[C@@H]2C[C@@H](O)CN2C(=O)[C@@H](c2cc(O[C@@H]3CC[C@@H]3N3CCC(c4sc5nnc(-c6ccccc6O)cc5c4C)CC3)no2)C(C)C)cc1 [Compound 35, (2S,4R)-4-hydroxy-1-[(2R)-2-{3-[(1R,2S)-2-{4-[3-(2-hydroxyphenyl)-5-methylthieno[2,3-c]pyridazin-6-yl]piperidin-1-yl}cyclobutoxy]-1,2-oxazol-5-yl}-3-methylbutanoyl]-N-[(1S)-1-[4-(4-methyl-1,3-thiazol-5-yl)phenyl]ethyl]pyrrolidine-2-carboxamide] | ≥ 0.01 µM | < 50% | ≥ 1 µM | A (“A” indicates maximum degradation ≥ 75%) |

Second part, led by results:

| DC50 (HiBit-BRM fusion protein) | Dmax [1] | DC50 [1] | Compound | BRM HiBit Degradation Maximum (%) (HiBit-BRM fusion protein) |
| --- | --- | --- | --- | --- |
| ≥ 0.01 µM | < 50% | ≥ 1 µM | Cc1ncsc1-c1ccc([C@H](C)NC(=O)[C@@H]2C[C@@H](O)CN2C(=O)[C@@H](c2cc(OCC(=O)N3CCC(c4sc5nnc(-c6ccccc6O)cc5c4C)CC3)no2)C(C)C)cc1 [Compound 93, (2S,4R)-4-hydroxy-1-((R)-2-(3-(2-(4-(3-(2-hydroxyphenyl)-5-methylthieno[2,3-c]pyridazin-6-yl)piperidin-1-yl)-2-oxoethoxy)isoxazol-5-yl)-3-methylbutanoyl)-N-((S)-1-(4-(4-methylthiazol-5-yl)phenyl)ethyl)pyrrolidine-2-carboxamide] | A (“A” indicates maximum degradation ≥ 75%) |
| ≥ 0.01 µM | < 50% | ≥ 1 µM | Cc1ncsc1-c1ccc(CNC(=O)[C@@H]2C[C@@H](O)CN2C(=O)[C@@H](c2cc(N3CCOCC3)no2)C(C)C)c(OCCCN2CCC(c3sc4nnc(-c5ccccc5O)cc4c3C)CC2)c1 (single isomer, unassigned) [Compound 56] | B (“B” indicates maximum degradation ≥ 50%) |
| ≥ 1 µM | < 50% | ≥ 1 µM | Cc1ncsc1-c1ccc([C@H](C)NC(=O)[C@@H]2C[C@@H](O)CN2C(=O)[C@@H](c2cc(OCCN[C@H]3CCc4sc5nnc(-c6ccccc6O)cc5c4C3)no2)C(C)C)cc1 [Compound 39, (2S,4R)-4-hydroxy-1-((R)-2-(3-(2-(((S)-3-(2-hydroxyphenyl)-5,6,7,8-tetrahydrobenzo[4,5]thieno[2,3-c]pyridazin-6-yl)amino)ethoxy)isoxazol-5-yl)-3-methylbutanoyl)-N—((S)-1-(4-(4-methylthiazol-5-yl)phenyl)ethyl)pyrrolidine-2-carboxamide] | C (“C” indicates maximum degradation < 50%) |
| ≥ 1 µM | < 50% | ≥ 1 µM | Cc1ncsc1-c1ccc([C@H](C)NC(=O)[C@@H]2C[C@@H](O)CN2C(=O)[C@@H](c2cc(OCCN3CCC(c4csc5nnc(-c6ccccc6O)cc45)CC3)no2)C(C)C)cc1 [Compound 101, (2S,4R)-4-hydroxy-1-((R)-2-(3-(2-(4-(3-(2-hydroxyphenyl)thieno[2,3-c]pyridazin-5-yl)piperidin-1-yl)ethoxy)isoxazol-5-yl)-3-methylbutanoyl)-N-((S)-1-(4-(4-methylthiazol-5-yl)phenyl)ethyl)pyrrolidine-2-carboxamide] | C (“C” indicates maximum degradation < 50%) |
| < 0.01 µM | < 50% | ≥ 1 µM | Cc1ncsc1-c1ccc([C@H](C)NC(=O)[C@@H]2C[C@@H](O)CN2C(=O)[C@@H](c2cc([C@H]3CC[C@@H](N4CCC(c5sc6nnc(-c7ccccc7O)cc6c5C)CC4)CC3)no2)C(C)C)cc1 [Compound 37, (2S,4R)-4-hydroxy-1-((R)-2-(3-((1s,4S)-4-(4-(3-(2-hydroxyphenyl)-5-methylthieno[2,3-c]pyridazin-6-yl)piperidin-1-yl)cyclohexyl)isoxazol-5-yl)-3-methylbutanoyl)-N-((S)-1-(4-(4-methylthiazol-5-yl)phenyl)ethyl)pyrrolidine-2-carboxamide] | A (“A” indicates maximum degradation ≥ 75%) |
| ≥ 0.1 µM | < 50% | ≥ 1 µM | Cc1ncsc1-c1ccc(CNC(=O)[C@@H]2C[C@@H](O)CN2C(=O)[C@@H](NC(=O)CCCC(=O)N2CCC(c3cc4nnc(-c5ccccc5O)cc4s3)CC2)C(C)(C)C)cc1 [Compound 80, (2S,4R)-4-hydroxy-1-((S)-2-(5-(4-(3-(2-hydroxyphenyl)thieno[3,2-c]pyridazin-6-yl)piperidin-1-yl)-5-oxopentanamido)-3,3-dimethylbutanoyl)-N-(4-(4-methylthiazol-5-yl)benzyl)pyrrolidine-2-carboxamide] | B (“B” indicates maximum degradation ≥ 50%) |
| ≥ 0.01 µM | < 50% | ≥ 1 µM | Cc1ncsc1-c1ccc([C@H](C)NC(=O)[C@@H]2C[C@@H](O)CN2C(=O)[C@@H](c2cc(OCCN3CCC(N4CCC(c5sc6nnc(-c7ccccc7O)cc6c5C)CC4)CC3)no2)C(C)C)cc1 [Compound 107, (2S,4R)-4-hydroxy-1-((R)-2-(3-(2-(4-(3-(2-hydroxyphenyl)-5-methylthieno[2,3-c]pyridazin-6-yl)-[1,4′-bipiperidin]-1′-yl)ethoxy)isoxazol-5-yl)-3-methylbutanoyl)-N-((S)-1-(4-(4-methylthiazol-5-yl)phenyl)ethyl)pyrrolidine-2-carboxamide] | A (“A” indicates maximum degradation ≥ 75%) |
